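Tested at 5 concentrations; 48 h exposure; 96-well plates; endpoints linearly interpolated, else capped at highest concentration. GI50 is the concentration that inhibits growth by half.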 Activity calls are given as the source filed them. No stated cut-off is given here; in the data, active = GI50 up to about 1.1 µM and inactive = higher.
Columns and labels:
Test in all cases: inhibition of tumour cell growth, NCI panel, 48 h
HCT-116 = test system: HCT-116
SK-MEL-5 = test system: SK-MEL-5
SN12C = test system: SN12C
EKVX = test system: EKVX
OVCAR-5 = test system: OVCAR-5
NCI-H226 = test system: NCI-H226
CCRF-CEM = test system: CCRF-CEM
SK-OV-3 = test system: SK-OV-3
K562 = test system: K562
OVCAR-8 = test system: OVCAR-8
TK-10 = test system: TK-10
UO-31 = test system: UO-31
ACHN = test system: ACHN
Malme-3M = test system: Malme-3M
UACC-257 = test system: UACC-257
LOX IMVI = test system: LOX IMVI
COLO 205 = test system: COLO 205
NCI/ADR-RES = test system: NCI/ADR-RES
MDA-MB-231 = test system: MDA-MB-231

Structure (SMILES): CCN(CC)CC(C)C(=O)/C=C/c1ccc(C)cc1 (stereo unspecified)
- GI50 (HCT-116): 1.73 µM (inactive)
- GI50 (SK-MEL-5): 5.02 µM (inactive)
- GI50 (SN12C): 1.63 µM (inactive)
- GI50 (EKVX): 13.8 µM (inactive)
- GI50 (OVCAR-5): 14.8 µM (inactive)
- GI50 (NCI-H226): 16.6 µM (inactive)
- GI50 (CCRF-CEM): 3.05 µM (inactive)
- GI50 (SK-OV-3): 17 µM (inactive)
- GI50 (K562): 3.24 µM (inactive)
- GI50 (OVCAR-8): 2.07 µM (inactive)
- GI50 (TK-10): 2.03 µM (inactive)
- GI50 (UO-31): 13.5 µM (inactive)
- GI50 (ACHN): 2.06 µM (inactive)
- GI50 (Malme-3M): 2.81 µM (inactive)
- GI50 (UACC-257): 2.23 µM (inactive)
- GI50 (LOX IMVI): 1.29 µM (inactive)
- GI50 (COLO 205): 1.55 µM (inactive)

Structure (SMILES): Nc1nc(CC2(O)CCCCC2)cc(-c2ccccc2)n1
- GI50 (HCT-116): 19.8 µM (inactive)
- GI50 (SK-MEL-5): 24.9 µM (inactive)
- GI50 (SN12C): 20.3 µM (inactive)
- GI50 (EKVX): 35.6 µM (inactive)
- GI50 (OVCAR-5): 20.9 µM (inactive)
- GI50 (NCI-H226): > 44.8 µM (inactive)
- GI50 (CCRF-CEM): 27.5 µM (inactive)
- GI50 (SK-OV-3): > 100 µM (inactive)
- GI50 (K562): 16.6 µM (inactive)
- GI50 (OVCAR-8): > 50.2 µM (inactive)
- GI50 (TK-10): > 61.8 µM (inactive)
- GI50 (UO-31): > 55 µM (inactive)
- GI50 (ACHN): 34.4 µM (inactive)
- GI50 (Malme-3M): > 10 µM (inactive)
- GI50 (UACC-257): 36.3 µM (inactive)
- GI50 (LOX IMVI): 40.4 µM (inactive)
- GI50 (COLO 205): 16.7 µM (inactive)

Structure (SMILES): CC(=O)Oc1c(C)n(CCCl)ccc1=O
- GI50 (HCT-116): > 100 µM (inactive)
- GI50 (SK-MEL-5): > 100 µM (inactive)
- GI50 (SN12C): > 100 µM (inactive)
- GI50 (EKVX): > 100 µM (inactive)
- GI50 (OVCAR-5): 56.6 µM (inactive)
- GI50 (NCI-H226): > 100 µM (inactive)
- GI50 (CCRF-CEM): 84.3 µM (inactive)
- GI50 (SK-OV-3): > 100 µM (inactive)
- GI50 (K562): > 100 µM (inactive)
- GI50 (OVCAR-8): > 100 µM (inactive)
- GI50 (TK-10): 22.5 µM (inactive)
- GI50 (UO-31): 59.2 µM (inactive)
- GI50 (ACHN): 69.3 µM (inactive)
- GI50 (Malme-3M): > 100 µM (inactive)
- GI50 (UACC-257): > 100 µM (inactive)
- GI50 (LOX IMVI): > 100 µM (inactive)
- GI50 (COLO 205): > 100 µM (inactive)

Structure (SMILES): CCOC(=O)c1cc2c(OC(C)=O)ccc(OC(C)=O)c2s1
- GI50 (HCT-116): 2.81 µM (inactive)
- GI50 (SK-MEL-5): 2.29 µM (inactive)
- GI50 (SN12C): 2.25 µM (inactive)
- GI50 (EKVX): 2.82 µM (inactive)
- GI50 (OVCAR-5): 6.19 µM (inactive)
- GI50 (NCI/ADR-RES): 2.2 µM (inactive)
- GI50 (NCI-H226): 12.9 µM (inactive)
- GI50 (CCRF-CEM): 2.16 µM (inactive)
- GI50 (SK-OV-3): 9.4 µM (inactive)
- GI50 (OVCAR-8): 1.66 µM (inactive)
- GI50 (TK-10): 6.82 µM (inactive)
- GI50 (UO-31): 1.43 µM (inactive)
- GI50 (ACHN): 1.61 µM (inactive)
- GI50 (Malme-3M): 1.93 µM (inactive)
- GI50 (UACC-257): 1.95 µM (inactive)
- GI50 (MDA-MB-231): 2.02 µM (inactive)
- GI50 (LOX IMVI): 0.891 µM (active)
- GI50 (COLO 205): 2.17 µM (inactive)

Structure (SMILES): COc1ccc(-n2sc3ncc(-c4ccccc4)cc3c2=O)cc1
- GI50 (HCT-116): 23.1 µM (inactive)
- GI50 (SK-MEL-5): 55.2 µM (inactive)
- GI50 (SN12C): 27.9 µM (inactive)
- GI50 (EKVX): 69.5 µM (inactive)
- GI50 (OVCAR-5): 26.2 µM (inactive)
- GI50 (NCI/ADR-RES): 72.9 µM (inactive)
- GI50 (NCI-H226): 82.2 µM (inactive)
- GI50 (CCRF-CEM): 39.4 µM (inactive)
- GI50 (SK-OV-3): > 100 µM (inactive)
- GI50 (OVCAR-8): 25.5 µM (inactive)
- GI50 (TK-10): 66.1 µM (inactive)
- GI50 (UO-31): 21.7 µM (inactive)
- GI50 (ACHN): 21.6 µM (inactive)
- GI50 (UACC-257): 57.8 µM (inactive)
- GI50 (LOX IMVI): 32.1 µM (inactive)
- GI50 (COLO 205): 56.4 µM (inactive)

Structure (SMILES): O/N=C(\C(=N/O)Nc1ccc(-c2ccc(NC(=N/O)/C(=N\O)c3ccccc3)cc2)cc1)c1ccccc1
- GI50 (HCT-116): 18.7 µM (inactive)
- GI50 (SK-MEL-5): 20.3 µM (inactive)
- GI50 (SN12C): 32.8 µM (inactive)
- GI50 (EKVX): 20.4 µM (inactive)
- GI50 (OVCAR-5): 13.5 µM (inactive)
- GI50 (NCI-H226): 28.5 µM (inactive)
- GI50 (CCRF-CEM): 18.8 µM (inactive)
- GI50 (SK-OV-3): 17.5 µM (inactive)
- GI50 (K562): 18 µM (inactive)
- GI50 (OVCAR-8): 21.4 µM (inactive)
- GI50 (TK-10): 36.8 µM (inactive)
- GI50 (UO-31): 31.8 µM (inactive)
- GI50 (ACHN): 30.6 µM (inactive)
- GI50 (Malme-3M): 19.4 µM (inactive)
- GI50 (UACC-257): 29.9 µM (inactive)
- GI50 (LOX IMVI): 15.3 µM (inactive)
- GI50 (COLO 205): 16.7 µM (inactive)

Structure (SMILES): O=C(Cc1nc2ccccc2o1)C(=O)Nc1ccccc1C(F)(F)F
- GI50 (HCT-116): > 100 µM (inactive)
- GI50 (SK-MEL-5): > 100 µM (inactive)
- GI50 (SN12C): > 100 µM (inactive)
- GI50 (EKVX): > 100 µM (inactive)
- GI50 (OVCAR-5): > 100 µM (inactive)
- GI50 (NCI-H226): > 100 µM (inactive)
- GI50 (CCRF-CEM): > 100 µM (inactive)
- GI50 (SK-OV-3): > 100 µM (inactive)
- GI50 (K562): > 100 µM (inactive)
- GI50 (OVCAR-8): > 100 µM (inactive)
- GI50 (TK-10): > 100 µM (inactive)
- GI50 (UO-31): > 100 µM (inactive)
- GI50 (ACHN): > 100 µM (inactive)
- GI50 (Malme-3M): > 100 µM (inactive)
- GI50 (UACC-257): > 100 µM (inactive)
- GI50 (LOX IMVI): > 100 µM (inactive)
- GI50 (COLO 205): > 100 µM (inactive)

Structure (SMILES): CC(=O)NC(CCCN(Cc1ccccc1)C(=O)N(C)N=O)C(=O)NCc1ccccc1 (stereo unspecified)
- GI50 (HCT-116): > 100 µM (inactive)
- GI50 (SK-MEL-5): > 100 µM (inactive)
- GI50 (SN12C): > 100 µM (inactive)
- GI50 (EKVX): > 100 µM (inactive)
- GI50 (OVCAR-5): > 100 µM (inactive)
- GI50 (NCI-H226): > 100 µM (inactive)
- GI50 (CCRF-CEM): > 100 µM (inactive)
- GI50 (SK-OV-3): > 100 µM (inactive)
- GI50 (K562): > 100 µM (inactive)
- GI50 (OVCAR-8): > 100 µM (inactive)
- GI50 (TK-10): > 100 µM (inactive)
- GI50 (UO-31): > 100 µM (inactive)
- GI50 (ACHN): > 100 µM (inactive)
- GI50 (Malme-3M): > 100 µM (inactive)
- GI50 (UACC-257): > 100 µM (inactive)
- GI50 (LOX IMVI): > 100 µM (inactive)
- GI50 (COLO 205): > 100 µM (inactive)

From ChEMBL document CHEMBL1201862, “PubChem BioAssay data set” (2004)
